This note sets out measurements from patent publication US12365672B2, “Compounds and their use for the treatment of alpha1-antitrypsin deficiency” (CENTESSA PHARMACEUTICALS (UK) LIMITED, priority 2019, dated 2025).

Molecules are shown by their SMILES.

T1 sequence (P01009 25-418 E366K): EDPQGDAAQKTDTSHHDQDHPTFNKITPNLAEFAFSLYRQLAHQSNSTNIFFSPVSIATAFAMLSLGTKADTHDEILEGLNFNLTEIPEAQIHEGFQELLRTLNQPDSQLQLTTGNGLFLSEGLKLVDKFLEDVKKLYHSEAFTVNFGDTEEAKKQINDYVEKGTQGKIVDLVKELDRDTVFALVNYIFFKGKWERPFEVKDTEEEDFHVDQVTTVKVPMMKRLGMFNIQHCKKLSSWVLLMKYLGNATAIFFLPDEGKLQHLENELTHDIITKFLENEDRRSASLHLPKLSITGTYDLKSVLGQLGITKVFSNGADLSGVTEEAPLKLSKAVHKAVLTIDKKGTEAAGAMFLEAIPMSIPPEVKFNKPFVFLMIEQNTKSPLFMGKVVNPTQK

This assay concerns the target T1, human Z A1AT (Homo sapiens, UniProt P01009, E366K).
T1 construct: expressed in transfected cells; host or cells: HEK-Z cells (human embryonic kidney cell line)
Kind of assay: A1AT cell secretion assay using HEK-Z cells (ELISA of supernatant). The class given is cell-based. The following applies: 48 h, A1AT in supernatant by ELISA. On the procedure: HEK-Z cells, a human embryonic kidney cell line stably transfected with the human Z A1AT gene, were plated into 96 well plates (3.0×10^5 cells/ml with 200 μl of media/well) overnight at 37° C. in a humidified atmosphere containing 5% CO2. Following incubation cells were washed with 200 μl serum-free media three times and media was replaced with treatments in quadruplicate using serum free media containing either vehicle, 10 μM suberanilohydroxamic acid (SAHA) or a compound of the invention (at concentrations of 10, 33, 100 and 333 nM) for 48 h in a 37° C. incubator in a final volume of 200 μl. At the end of the incubation step the supernatants were removed from the wells, centrifuged at 1000×g at 4° C. for 10 min and were assayed for human A1AT levels by ELISA (Human Serpin A1/α1-antitrypsin duo set ELISA, R& D Systems, DY1268) per manufacturer's instructions.
Briefly, a 96 well plate was coated with human A1AT capture antibody overnight at room temperature (1:180 dilution from stock, 100 μl final volume/well). The capture antibody was then removed and wells washed three times with 300 μl wash buffer (0.05% Tween 20 in PBS) and then 200 μl reagent diluent ([…]) was incubated in each well for 1 h at room temperature. Diluted samples, standards (125, 250, 500, 1000, 2000, 4000 and 8000 pg/ml A1AT) or blanks were then added to each well in duplicate and the plates were covered with a plate sealer and left at room temperature for 2 h. At the end of the sample incubation step, samples were removed and all wells washed as previously and 100 μl detection antibody (1:180 dilution from stock) was added to each well and incubated for a further 2 h at room temperature. […] After which, 50 μl stop solution (2M H2SO4) was added and optical density (OD) of each well was read at 450 nm with 570 nm blank subtracted from each well using a microplate reader. A 4 parameter logistic curve was constructed using GraphPad Prism 7 and A1AT concentrations were determined in each sample by interpolation from a standard curve and multiplying by the appropriate dilution factor.
(ELISA stands for enzyme-linked immunosorbent assay.)
In the case of `O=c1ccncn1Cc1ccc(-c2ncco2)cc1` [Example 1, 3-(4-(oxazol-2-yl)benzyl)pyrimidin-4(3H)-one], the “Median A1AT % increase over vehicle at 300 nM” value (“Median A1AT % increase” below) was 180%. Take `O=c1c2ccccc2ncn1Cc1ccc(-c2ncco2)cc1` [Example 2, 3-(4-(oxazol-2-yl)benzyl)quinazolin-4(3H)-one]: the “Median A1AT % increase” value is 140%.

Regarding `O=c1cc[nH]c(=O)n1Cc1ccc(-c2ncco2)cc1` [Example 3, 3-(4-(oxazol-2-yl)benzyl)pyrimidine-2,4(1H,3H)-dione], the “Median A1AT % increase” value is reported as 180%.
